# Measured values reported in patent US20250381198A1 (Melt Pharmaceuticals, Inc., priority 2024, published 2025).
# Marks after values point to notes of the source that are not given here.
# Tested on: subjects undergoing cataract extraction with lens replacement (CELR)
# Assay: Phase 3: adverse events (safety analysis set)
# Format: in vivo, human
# Method: The safety of MELT-300 was performed at baseline, in the course of surgery (intraoperatively), postoperatively on Day 1, and on Day 3+1 day post dose of study medication. Safety assessment included monitoring of AEs, vital sign measurements, and physical examinations.
# An overview of adverse events (AEs) is provided in TABLE 57 for the safety analysis set. Reported data includes an overall summary of the presence of any AEs, treatment-emergent ocular adverse events (TEAEs), treatment-related TEAEs, TEAE of special interest (TEAESI), serious AEs (SEAs), and treatment-emergent SAEs (TESAE). Categories were not mutually exclusive. Results include the number of subjects, percent of subjects, and number of events in each category, respectively. A summary of treatment-emergence adverse events (TEAEs) by location, system organ class, and preferred term for the safety analysis set is provided in TABLE 58. A summary of treatment-related treatment-emergent adverse events (TRTEAEs) by system organ class, and preferred term for the safety analysis set is provided in TABLE 59. No SAEs (overall), TESAEs, or treatment-related TESAEs were observed. No SAEs resulting in death or discontinuation of the study was observed.
# [1] = Location: Non-Ocular, Safety Analysis Set
# [2] = Location: Non-Ocular, Safety analysis set
# [3] = Location: Ocular, Safety Analysis Set
# [4] = Location: Ocular, Safety analysis set
structure (smiles),measurement,setting,value
"Cc1ncc2n1-c1ccc(Cl)cc1C(c1ccccc1F)=NC2 [Midazolam, 8-chloro-6-(2-fluorophenyl)-1-methyl-4H-imidazo[1,5-a][1,4]benzodiazepine]",TEAE: Amnesia,[1],0 n
same,TEAE: Anxiety,[1],0 n
same,TEAE: Back pain,[1],0 n
same,TEAE: Balance disorder,[1],0 n
same,TEAE: Blood pressure increased,[1],0 n
same,TEAE: Blood pressure systolic increased,[1],0 n
same,TEAE: Bradycardia,[1],0 n
same,TEAE: Cardiac disorders (System Organ Class),[1],0 n
same,TEAE: Cough,[1],0 n
same,TEAE: Dental local anaesthesia,[1],0 n
same,TEAE: Dizziness,[1],0 n
same,TEAE: Fatigue,[1],0 n
same,TEAE: Gastrointestinal disorders (System Organ Class),[1],0 n
same,TEAE: General disorders and administration site conditions (System Organ Class),[1],0 n
same,TEAE: Hiccups,[1],0 n
same,TEAE: Hypertension,[1],0 n
same,TEAE: Hypoaesthesia oral,[1],0 n
same,TEAE: Infections and infestations (System Organ Class),[1],0 n
same,"TEAE: Injury, poisoning and procedural complications (System Organ Class)",[1],0 n
same,TEAE: Investigations (System Organ Class),[1],0 n
same,TEAE: Lethargy,[1],0 n
same,TEAE: Musculoskeletal and connective tissue disorders (System Organ Class),[1],0 n
same,TEAE: Myalgia,[1],0 n
same,TEAE: Nasal Discomfort,[1],0 n
same,TEAE: Nausea,[1],0 n
same,TEAE: Neck pain,[1],0 n
same,TEAE: Oxygen saturation decreased,[1],0 n
same,TEAE: Post procedural hypotension,[1],0 n
same,TEAE: Procedural nausea,[1],0 n
same,TEAE: Procedural vomiting,[1],0 n
same,TEAE: Product after taste,[1],0 n
same,TEAE: Product issues (System Organ Class),[1],0 n
same,TEAE: Psychiatric disorders (System Organ Class),[1],0 n
same,TEAE: Pyrexia,[1],0 n
same,TEAE: Sinusitis,[1],0 n
same,TEAE: Surgical and medical procedures (System Organ Class),[1],0 n
same,TEAE: Tachycardia,[1],0 n
same,TEAE: Taste disorder,[1],0 n
same,TEAE: Vascular disorders (System Organ Class),[1],0 n
same,"Any AE, events",[2],9 #
same,"Any AE, subjects",[2],7 (7.9) n (%)
same,"Any Grade 3+ TEAE, events",[2],0 #
same,"Any Grade 3+ TEAE, subjects",[2],0 n (%)
same,"Any SAE, events",[2],0 #
same,"Any SAE, subjects",[2],0 n (%)
same,"Any TEAE Resulting in Death, events",[2],0 #
same,"Any TEAE Resulting in Death, subjects",[2],0 n (%)
same,"Any TEAE Resulting in Study Drug Interruption, events",[2],0 #
same,"Any TEAE Resulting in Study Drug Interruption, subjects",[2],0 n (%)
same,"Any TEAE Resulting in Study Drug Withdrawal, events",[2],0 #
same,"Any TEAE Resulting in Study Drug Withdrawal, subjects",[2],0 n (%)
same,"Any TEAE, events",[2],5 #
same,"Any TEAE, subjects",[2],4 (4.5) n (%)
same,"Any TEAESI, events",[2],2 #
same,"Any TEAESI, subjects",[2],2 (2.2) n (%)
same,"Any TESAE, events",[2],0 #
same,"Any TESAE, subjects",[2],0 n (%)
same,"Any Treatment-Related TEAE Resulting in Death, events",[2],0 #
same,"Any Treatment-Related TEAE Resulting in Death, subjects",[2],0 n (%)
same,"Any Treatment-Related TEAE, events",[2],3 #
same,"Any Treatment-Related TEAE, subjects",[2],2 (2.2) n (%)
same,"Any Treatment-Related TEAESI, events",[2],1 #
same,"Any Treatment-Related TEAESI, subjects",[2],1 (1.1) n (%)
same,"Any Treatment-Related TESAE, events",[2],0 #
same,"Any Treatment-Related TESAE, subjects",[2],0 n (%)
same,"Any Unexpected TEAE, events",[2],0 #
same,"Any Unexpected TEAE, subjects",[2],0 n (%)
same,"Any Unexpected Treatment-Related TEAE, events",[2],0 #
same,"Any Unexpected Treatment-Related TEAE, subjects",[2],0 n (%)
same,"TEAESI: Abuse-related AEs, events",[2],0 #
same,"TEAESI: Abuse-related AEs, subjects",[2],0 n (%)
same,"TEAESI: Cardiovascular AEs, events",[2],1 #
same,"TEAESI: Cardiovascular AEs, subjects",[2],1 (1.1) n (%)
same,"TEAESI: Ketamine emergence delirium, events",[2],0 #
same,"TEAESI: Ketamine emergence delirium, subjects",[2],0 n (%)
same,"TEAESI: Neurocognitive AEs, events",[2],0 #
same,"TEAESI: Neurocognitive AEs, subjects",[2],0 n (%)
same,"TEAESI: Oral/pharyngeal AEs, events",[2],0 #
same,"TEAESI: Oral/pharyngeal AEs, subjects",[2],0 n (%)
same,"TEAESI: Oversedation requiring the use of flumazenil, events",[2],0 #
same,"TEAESI: Oversedation requiring the use of flumazenil, subjects",[2],0 n (%)
same,"TEAESI: Respiratory AEs, events",[2],1 #
same,"TEAESI: Respiratory AEs, subjects",[2],1 (1.1) n (%)
same,TEAE: Abnormal sensation in eye,[3],0 n
same,TEAE: Corneal abrasion,[3],0 n
same,TEAE: Corneal oedema,[3],0 n
same,TEAE: Diplopia,[3],0 n
same,TEAE: General disorders and administration site conditions (System Organ Class),[3],0 n
same,TEAE: Glare,[3],0 n
same,"TEAE: Injury, poisoning and procedural complications (System Organ Class)",[3],0 n
same,TEAE: Installation site pain,[3],0 n
same,TEAE: Lacrimation increased,[3],0 n
same,TEAE: Ocular discomfort,[3],0 n
same,TEAE: Photophobia,[3],0 n
same,TEAE: Photopsia,[3],0 n
same,TEAE: Procedural pain,[3],0 n
same,TEAE: Visual field defect,[3],0 n
same,TEAE: Visual impairment,[3],0 n
same,"Any AE, events",[4],15 #
same,"Any AE, subjects",[4],10 (11.2) n (%)
same,"Any Grade 3+ TEAE, events",[4],0 #
same,"Any Grade 3+ TEAE, subjects",[4],0 n (%)
same,"Any Grade 3+ Treatment-Related TEAE, events",[4],0 #
same,"Any Grade 3+ Treatment-Related TEAE, subjects",[4],0 n (%)
same,"Any SAE, events",[4],0 #
same,"Any SAE, subjects",[4],0 n (%)
same,"Any TEAE Resulting in Death, events",[4],0 #
same,"Any TEAE Resulting in Death, subjects",[4],0 n (%)
same,"Any TEAE Resulting in Study Drug Interruption, events",[4],0 #
same,"Any TEAE Resulting in Study Drug Interruption, subjects",[4],0 n (%)
same,"Any TEAE Resulting in Study Drug Withdrawal, events",[4],0 #
same,"Any TEAE Resulting in Study Drug Withdrawal, subjects",[4],0 n (%)
same,"Any TEAE, events",[4],15 #
same,"Any TEAE, subjects",[4],10 (11.2) n (%)
same,"Any TEAESI, events",[4],0 #
same,"Any TEAESI, subjects",[4],2 (2.2) n (%)
same,"Any TESAE, events",[4],0 #
same,"Any TESAE, subjects",[4],0 n (%)
same,"Any Treatment-Related TEAE, events",[4],1 #
same,"Any Treatment-Related TEAE, subjects",[4],1 (1.1) n (%)
same,"Any Treatment-Related TEAESI, events",[4],0 #
same,"Any Treatment-Related TEAESI, subjects",[4],0 n (%)
same,"Any Treatment-Related TESAE, events",[4],0 #
same,"Any Treatment-Related TESAE, subjects",[4],0 n (%)
same,"Any Unexpected TEAE, events",[4],9 #
same,"Any Unexpected TEAE, subjects",[4],6 (6.7) n (%)
same,"Any Unexpected Treatment-Related TEAE, events",[4],0 #
